Test [1] in a line: loss of viability in HepG2 cells – cell-based, CellTiter-Glo, cherry-picked, cytotoxicity control for Shn3 inhibitor project, dose response (AID 624134). The format is functional. For orientation: In ATP-based viability assays light output follows the ATP content of the culture.
A short description of test [2]: non-specific 3'UTR reporter inhibition in Clone20-Shn3RL – cell-based, Renilla luciferase, cherry-picked, counter-screen for Shn3 inhibitor project, dose response (AID 624133). In kind it is functional. In general terms: The purpose of a counterscreen is to sort out artefacts and off-target activity.
Test [3] addresses T1, Sphingosine 1-phosphate receptor 2 (Homo sapiens, UniProt O95136). Put plainly: Dose Response Cell Based Assay for Antagonists of the S1P2 Receptor. [Related pubchem assays: 856, 736 ]. In kind it is functional.
The nature of test [4]: reduction of Shn3 3'UTR-driven luciferase in osteoblasts – cell-based, Clone20 osteoblasts, firefly luciferase, cherry-picked, dose response (AID 624132).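 Also: firefly luciferase luminescence from reporter carrying the Shn3 3'UTR in osteoblasts.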 In kind it is functional.
Test [5] addresses T2, Neuropeptide Y receptor type 2 (Homo sapiens, UniProt P49146).
T2 sequence (P49146 whole entry): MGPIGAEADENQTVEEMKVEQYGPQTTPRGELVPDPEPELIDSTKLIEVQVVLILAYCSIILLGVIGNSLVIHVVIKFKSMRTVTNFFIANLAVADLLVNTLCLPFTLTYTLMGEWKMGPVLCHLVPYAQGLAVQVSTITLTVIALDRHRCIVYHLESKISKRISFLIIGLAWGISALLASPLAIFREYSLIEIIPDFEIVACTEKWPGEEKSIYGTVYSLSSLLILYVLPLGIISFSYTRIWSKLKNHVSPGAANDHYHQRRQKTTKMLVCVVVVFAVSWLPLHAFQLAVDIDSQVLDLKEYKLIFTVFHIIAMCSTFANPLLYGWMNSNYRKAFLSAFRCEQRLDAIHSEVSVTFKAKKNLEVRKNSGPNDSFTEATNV
Put plainly: IC50 for human NPY-Y2 blockade – cell-based, counter-screen for NPY-Y1 antagonist project, dose response (AID 1278). In kind it is functional.

Test [6] addresses T3, Neuropeptide Y receptor type 1 (Homo sapiens, UniProt P25929).
T3 sequence (P25929 whole entry): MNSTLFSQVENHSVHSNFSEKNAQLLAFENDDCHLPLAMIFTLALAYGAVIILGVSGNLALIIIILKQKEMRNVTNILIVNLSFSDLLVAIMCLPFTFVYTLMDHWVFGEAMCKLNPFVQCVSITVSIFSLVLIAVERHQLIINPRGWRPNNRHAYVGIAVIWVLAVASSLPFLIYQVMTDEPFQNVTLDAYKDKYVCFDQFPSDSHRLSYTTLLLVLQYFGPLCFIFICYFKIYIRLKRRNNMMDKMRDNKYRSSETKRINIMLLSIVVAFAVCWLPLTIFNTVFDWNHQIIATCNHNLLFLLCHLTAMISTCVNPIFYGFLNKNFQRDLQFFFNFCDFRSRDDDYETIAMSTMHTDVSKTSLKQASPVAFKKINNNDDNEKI
Put plainly: IC50 of human NPY-Y1 blockers – cell-based, dose response (AID 1277). The format is functional.

For test [7], the target named is Cytochrome P450 2C19 (Homo sapiens, UniProt P33261). Put plainly: qHTS Assay for Inhibitors and Substrates of Cytochrome P450 2C19. [Related pubchem assays: 410 ]. The format is ADME. As to conditions: read-out: Potency.
Test [8] has as its system Vero. The test is described as follows: inhibition of WNV-induced cytopathic effect – cell-based, CPE readout (AID 1621). In kind it is functional. As to conditions: Chlorocebus sabaeus. (In general: Damage to the host cells serves as the signal in cytopathic effect assays.)
A short description of test [9]: viability loss in HeLa cells – cytotoxicity control for MgcRacGAP inhibitor project, dose response (AID 624300). In kind it is functional.
Test [10] addresses T4, Rac GTPase-activating protein 1 (Homo sapiens, UniProt Q9H0H5).
T4 sequence (Q9H0H5 whole entry): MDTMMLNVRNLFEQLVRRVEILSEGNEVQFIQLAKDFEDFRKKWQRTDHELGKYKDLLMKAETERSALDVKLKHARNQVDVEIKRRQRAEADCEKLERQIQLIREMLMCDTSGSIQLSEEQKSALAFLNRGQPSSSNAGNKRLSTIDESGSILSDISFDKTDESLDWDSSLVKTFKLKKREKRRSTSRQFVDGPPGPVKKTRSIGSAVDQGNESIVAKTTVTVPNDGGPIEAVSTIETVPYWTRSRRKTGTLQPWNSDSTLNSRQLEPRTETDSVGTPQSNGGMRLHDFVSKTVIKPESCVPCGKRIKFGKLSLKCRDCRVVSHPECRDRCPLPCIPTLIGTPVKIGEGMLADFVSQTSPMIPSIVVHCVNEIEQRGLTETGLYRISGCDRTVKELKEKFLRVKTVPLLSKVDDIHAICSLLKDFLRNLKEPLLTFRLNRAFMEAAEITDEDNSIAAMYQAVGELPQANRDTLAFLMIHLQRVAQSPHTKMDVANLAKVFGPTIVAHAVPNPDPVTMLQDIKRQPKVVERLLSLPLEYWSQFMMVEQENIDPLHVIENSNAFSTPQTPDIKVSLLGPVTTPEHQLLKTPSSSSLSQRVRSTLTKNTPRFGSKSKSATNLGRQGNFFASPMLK
The test is described as follows: blockers of MgcRacGAP-driven Rac1 GTP hydrolysis – biochemical, ADP Hunter fluorescence, primary and confirmatory, confirmation (AID 624330). In kind it is functional.

Test [11] addresses 14-3-3 protein gamma (Homo sapiens, UniProt P61981). The test is described as follows: modulators of 14-3-3 gamma client binding – dose response (AID 711). The format is functional.
Test [12] concerns the target T1, Sphingosine 1-phosphate receptor 2. The test is described as follows: Dose Response Cell Based Assay for Agonists of the S1P2 Receptor. [Related pubchem assays: 729, 736, 843 ]. In kind it is functional.
The target is the same in test [13]. Put plainly: Dose Response Cell Based Assay for Agonists of the S1P2 Receptor of Purchased Analogues. [Related pubchem assays: 729, 843, 854, 736 ]. In kind it is functional.
Test [14] deals with Diphosphomevalonate decarboxylase (Streptococcus pneumoniae serotype 2 (strain D39 / NCTC 7466), UniProt Q9FD53). The test is described as follows: diphosphomevalonate decarboxylase inhibitor confirmation – biochemical, cuvette format, coupled NADH fluorescence (AID 1028). The format is functional.
Test [15] has as its target Lytic switch protein BZLF1 (Epstein-Barr virus (strain B95-8) (HHV-4) (Human herpesvirus 4), UniProt P03206). Put plainly: inhibition of BZLF1 ZTA DNA binding – biochemical, fluorescence polarization, Epstein-Barr virus, 1536-well, counter-screen for EBNA-1 inhibitor project, dose response (AID 2377).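 Also: fluorescence polarization of Cy5-labelled ZRE DNA probe bound by purified Zta.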 Also on record: species or system human gammaherpesvirus 4.
Test [16] deals with Epstein-Barr nuclear antigen 1 (Epstein-Barr virus (strain B95-8) (HHV-4) (Human herpesvirus 4), UniProt P03211). Put plainly: inhibition of EBV nuclear antigen 1 DNA binding – biochemical, fluorescence polarization, 1536-well, dose response (AID 2381).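 Also: fluorescence polarization of a Cy5 DNA probe bound by EBNA-1 protein.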 Set-up: species or system human gammaherpesvirus 4.
For test [17], the target named is NADPH oxidase 1 (Homo sapiens, UniProt Q9Y5S8). Put plainly: Late-stage luminescence-based cell-based dose response assay to identify inhibitors of NADPH oxidase 1 (NOX1): Synthesized analogs 3. The format is functional.
The target of test [18] is Mitogen-activated protein kinase 10 (Homo sapiens, UniProt P53779). Put plainly: Dose response biochemical screening assay for inhibitors of c-Jun N-Terminal Kinase 3 (JNK3). [Related pubchem assays: 746 ].
The target of test [19] is Prothrombin (Homo sapiens, UniProt P00734). Put plainly: Thrombin 1536 HTS Dose Response Confirmation. [Related pubchem assays: 1046 (Thrombin 1536 HTS; hits were confirmed in this assay)]. In kind it is functional.
Test [20] concerns the target T5, Coagulation factor XII (Homo sapiens, UniProt P00748).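 Also: activated factor XIIa alpha cleaving a fluorogenic AMC peptide substrate; inhibitor potency from loss of enzyme activity.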
T5 sequence (P00748 whole entry): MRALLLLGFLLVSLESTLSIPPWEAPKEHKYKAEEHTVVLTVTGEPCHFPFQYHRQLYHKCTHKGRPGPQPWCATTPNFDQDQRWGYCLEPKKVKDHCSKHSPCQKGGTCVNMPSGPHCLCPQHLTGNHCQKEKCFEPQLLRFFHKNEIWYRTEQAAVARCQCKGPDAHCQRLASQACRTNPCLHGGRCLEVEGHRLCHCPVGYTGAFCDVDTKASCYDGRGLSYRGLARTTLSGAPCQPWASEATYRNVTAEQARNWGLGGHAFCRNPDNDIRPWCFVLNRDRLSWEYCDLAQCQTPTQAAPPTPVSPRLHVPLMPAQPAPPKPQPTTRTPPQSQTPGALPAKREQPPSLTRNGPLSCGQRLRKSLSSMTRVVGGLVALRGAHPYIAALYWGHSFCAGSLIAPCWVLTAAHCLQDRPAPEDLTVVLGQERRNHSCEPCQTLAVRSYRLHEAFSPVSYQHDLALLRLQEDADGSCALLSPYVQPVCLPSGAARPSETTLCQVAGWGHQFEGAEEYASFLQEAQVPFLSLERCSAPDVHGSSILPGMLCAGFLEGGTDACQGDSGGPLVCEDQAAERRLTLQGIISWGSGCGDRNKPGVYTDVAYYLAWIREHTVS
In kind it is functional.

Calls of active or inactive are those of the source.

T1 sequence (O95136 whole entry): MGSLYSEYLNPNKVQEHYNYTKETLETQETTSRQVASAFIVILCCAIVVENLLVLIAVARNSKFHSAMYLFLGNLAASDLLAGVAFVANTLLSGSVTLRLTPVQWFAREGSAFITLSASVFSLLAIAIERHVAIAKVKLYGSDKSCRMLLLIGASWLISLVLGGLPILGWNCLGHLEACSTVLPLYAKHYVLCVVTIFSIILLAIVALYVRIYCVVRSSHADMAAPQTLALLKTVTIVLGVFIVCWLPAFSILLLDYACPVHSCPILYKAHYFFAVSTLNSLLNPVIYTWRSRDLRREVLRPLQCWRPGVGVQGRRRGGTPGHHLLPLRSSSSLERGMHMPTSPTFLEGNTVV
14-3-3 protein gamma, sequence (P61981 whole entry): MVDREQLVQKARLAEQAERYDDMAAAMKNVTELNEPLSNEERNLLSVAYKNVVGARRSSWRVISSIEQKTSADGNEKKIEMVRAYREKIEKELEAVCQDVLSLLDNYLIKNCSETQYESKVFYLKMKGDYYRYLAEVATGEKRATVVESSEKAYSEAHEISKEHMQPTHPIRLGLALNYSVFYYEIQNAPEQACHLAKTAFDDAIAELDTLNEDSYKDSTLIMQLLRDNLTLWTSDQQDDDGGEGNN
Mitogen-activated protein kinase 10, sequence (P53779 whole entry): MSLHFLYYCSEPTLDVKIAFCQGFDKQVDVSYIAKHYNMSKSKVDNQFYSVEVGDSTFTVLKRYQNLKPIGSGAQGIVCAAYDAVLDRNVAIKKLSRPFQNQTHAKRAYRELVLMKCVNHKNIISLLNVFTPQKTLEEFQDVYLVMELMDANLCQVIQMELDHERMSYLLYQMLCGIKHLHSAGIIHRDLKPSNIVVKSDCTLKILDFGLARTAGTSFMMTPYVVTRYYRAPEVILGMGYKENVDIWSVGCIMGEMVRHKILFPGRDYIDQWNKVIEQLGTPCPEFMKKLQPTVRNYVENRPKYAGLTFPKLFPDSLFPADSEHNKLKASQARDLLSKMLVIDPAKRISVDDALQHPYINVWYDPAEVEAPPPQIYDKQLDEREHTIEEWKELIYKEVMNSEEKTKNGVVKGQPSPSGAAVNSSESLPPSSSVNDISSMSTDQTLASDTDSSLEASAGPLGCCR
Diphosphomevalonate decarboxylase, sequence (Q9FD53 whole entry): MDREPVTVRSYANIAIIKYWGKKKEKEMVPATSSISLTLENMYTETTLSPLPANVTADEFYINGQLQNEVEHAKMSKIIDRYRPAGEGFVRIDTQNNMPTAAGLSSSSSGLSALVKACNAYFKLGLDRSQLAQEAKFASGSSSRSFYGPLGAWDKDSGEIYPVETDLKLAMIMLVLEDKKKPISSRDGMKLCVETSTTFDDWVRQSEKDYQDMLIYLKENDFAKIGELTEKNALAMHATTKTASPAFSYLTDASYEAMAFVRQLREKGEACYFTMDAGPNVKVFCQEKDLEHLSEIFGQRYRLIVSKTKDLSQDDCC
NADPH oxidase 1, sequence (Q9Y5S8 whole entry): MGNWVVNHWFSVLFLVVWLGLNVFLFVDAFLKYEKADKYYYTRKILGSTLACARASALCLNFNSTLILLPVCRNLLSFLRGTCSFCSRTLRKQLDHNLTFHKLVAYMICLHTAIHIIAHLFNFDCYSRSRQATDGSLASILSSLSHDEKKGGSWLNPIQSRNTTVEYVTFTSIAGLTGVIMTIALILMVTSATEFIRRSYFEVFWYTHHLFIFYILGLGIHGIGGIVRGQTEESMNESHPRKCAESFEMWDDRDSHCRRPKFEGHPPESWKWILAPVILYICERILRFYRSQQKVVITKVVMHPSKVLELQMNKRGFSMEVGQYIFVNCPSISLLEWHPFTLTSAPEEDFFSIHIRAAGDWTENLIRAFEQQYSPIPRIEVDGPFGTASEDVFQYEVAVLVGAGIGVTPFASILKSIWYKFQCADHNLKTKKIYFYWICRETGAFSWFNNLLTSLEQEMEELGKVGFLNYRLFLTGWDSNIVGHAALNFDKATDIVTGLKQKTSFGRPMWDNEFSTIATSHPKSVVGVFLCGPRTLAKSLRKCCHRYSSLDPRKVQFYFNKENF
Cytochrome P450 2C19, sequence (P33261 whole entry): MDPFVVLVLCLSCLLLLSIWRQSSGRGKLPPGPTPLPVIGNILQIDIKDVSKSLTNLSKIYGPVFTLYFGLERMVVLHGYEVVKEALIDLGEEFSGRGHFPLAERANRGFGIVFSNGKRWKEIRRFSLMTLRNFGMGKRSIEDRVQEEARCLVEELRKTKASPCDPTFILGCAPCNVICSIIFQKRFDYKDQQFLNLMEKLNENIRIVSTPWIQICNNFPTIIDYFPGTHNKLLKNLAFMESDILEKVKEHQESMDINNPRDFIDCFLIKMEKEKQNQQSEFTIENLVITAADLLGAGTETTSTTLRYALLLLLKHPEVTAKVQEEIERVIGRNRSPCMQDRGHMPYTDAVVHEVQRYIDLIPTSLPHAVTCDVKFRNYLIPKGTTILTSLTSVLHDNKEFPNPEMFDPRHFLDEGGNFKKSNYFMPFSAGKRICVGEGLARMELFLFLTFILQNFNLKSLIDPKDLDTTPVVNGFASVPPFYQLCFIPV
Lytic switch protein BZLF1, sequence (P03206 whole entry): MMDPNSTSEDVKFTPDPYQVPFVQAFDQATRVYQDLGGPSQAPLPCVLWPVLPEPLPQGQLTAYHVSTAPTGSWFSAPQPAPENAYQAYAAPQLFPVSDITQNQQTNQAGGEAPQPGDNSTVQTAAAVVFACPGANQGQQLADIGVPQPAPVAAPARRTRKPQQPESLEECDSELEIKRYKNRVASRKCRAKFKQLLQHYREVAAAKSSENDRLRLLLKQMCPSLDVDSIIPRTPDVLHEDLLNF
Epstein-Barr nuclear antigen 1, sequence (P03211 whole entry): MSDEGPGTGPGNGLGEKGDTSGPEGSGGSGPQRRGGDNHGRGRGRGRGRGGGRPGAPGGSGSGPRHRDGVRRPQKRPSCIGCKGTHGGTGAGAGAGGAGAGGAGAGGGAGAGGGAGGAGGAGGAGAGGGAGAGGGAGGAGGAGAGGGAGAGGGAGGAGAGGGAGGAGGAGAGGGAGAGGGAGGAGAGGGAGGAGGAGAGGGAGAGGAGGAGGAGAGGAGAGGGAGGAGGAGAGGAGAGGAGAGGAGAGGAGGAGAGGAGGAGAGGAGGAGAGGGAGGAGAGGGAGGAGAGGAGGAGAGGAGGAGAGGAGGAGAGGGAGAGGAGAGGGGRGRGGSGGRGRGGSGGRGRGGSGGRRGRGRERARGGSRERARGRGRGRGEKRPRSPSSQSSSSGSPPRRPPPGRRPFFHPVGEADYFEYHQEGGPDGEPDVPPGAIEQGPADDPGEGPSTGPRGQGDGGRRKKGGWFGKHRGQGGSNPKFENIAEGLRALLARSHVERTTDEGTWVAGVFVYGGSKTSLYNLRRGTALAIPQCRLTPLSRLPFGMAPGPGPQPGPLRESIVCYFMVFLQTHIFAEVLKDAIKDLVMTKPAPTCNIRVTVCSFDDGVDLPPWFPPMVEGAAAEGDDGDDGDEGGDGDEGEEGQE

As for `CCN(C(=O)c1ccc(C(C)(C)C)cc1)c1nnc(Cn2nnc3ccccc32)s1`, the figures for the AC50 in [1], in [2] and in [4] were 1.55 µM (active), 2 µM (active) and 1.35 µM (active), respectively. Further, the half-maximal inhibitory concentration (IC50) (usually the concentration at which inhibition is half-maximal) is 83.8 µM (not active) in test [3], 7.74 µM (active) in test [5] and 3.21 µM (active) in test [6].
With `CNc1ccccc1C(=O)OCC(=O)c1ccccc1`, in [7], the AC50 is 2 µM (inconclusive).
Take `CCOC(=O)c1c(NC(=O)CN(C)C2CCN(C)CC2)sc(C(=O)Nc2ccccc2)c1C`: the IC50 in test [8] is 24.3 µM (active); in test [10], 76.9 µM (active). Also, in test [9], the CC50 – broadly, the concentration at which the toxic effect on the cells reaches its halfway point – is 100 µM (active).
`COc1ccc(OC)c(NC(=O)CCN2CCCC(C)C2)c1` (stereo not given): the IC50 in [11] is given as > 50 µM (not active).
`c1ccc(OCCSc2nnnn2-c2ccccc2)cc1`: the concentration for a half-maximal effect (EC50) (usually the concentration giving half of the maximal effect) in test [12] is on record as > 50 µM (not active).
Regarding `Cc1cc(C(=O)CN(C)Cc2ccco2)c(C)n1Cc1ccccc1`, the half-maximal effective concentration (EC50) in test [13] is given as > 30 µM (not active).
With `O=C(NCc1ccccc1)c1ccccc1-n1sc2ccccc2c1=O`, the 50% inhibitory concentration (IC50) in [14] is 12.4 µM (active).
Consider `COCCCNC(=O)c1c(N)n(-c2ccc(S(N)(=O)=O)cc2)c2nc3ccccc3nc12`, for which the IC50 in test [15] was > 111 µM (not active); in test [16], > 5.47 µM (active).
Regarding `CN1c2ccc(Br)cc2Sc2cc(C(=O)c3ccc(N=[N+]=[N-])cc3)ccc21`, the IC50 in test [17] is 13.7 µM (active).
As for `CS(=O)(=O)N1CCN(c2ccccc2NC(=O)Cc2ccccc2)CC1`, the IC50 in test [18] is 68.8 µM (not active).
On to `COc1ccc(/C=N/NC(=O)c2sc3nc(C)cc(C)c3c2N)cc1`, for which the IC50 in [19] was > 50 µM (not active); in [20], > 50 µM (inactive).

The values above are taken from ChEMBL document CHEMBL1201862, “PubChem BioAssay data set” (2004).
